Data as given in ChEMBL document CHEMBL1201862, “PubChem BioAssay data set” (2004).
Calls of active or inactive are those of the source.

Legend:
cells [1] = format: functional, cell-based
[2] = A Cell Based Secondary Assay To Explore Cytotoxicity of Compounds that Sensitize Mycobacterium Tuberculosis to Beta-Lactam Antibiotics.; format: functional
cells [3] = format: functional, cell-based; remark: listed apart in the source
Streptococcus [4] = assay: Luminescence Microorganism-Based Dose Response Follow up to Identify Compounds Cytotoxic to Streptococcus. [Related pubchem assays: 1677 (Project Summary), 1915, 1914, 1902 (Retest at Dose), 1900 (Counter Screen), 1662 (Primary HTS)]; format: functional, organism-based
Bcl-2-like protein 10 = molecular target: T1, Bcl-2-like protein 10 (Homo sapiens, UniProt Q9HD36); assay: Biochemical TR3 FP assay of Bcl-B inhibitor potency, EC50 (AID 1243); format: functional
T1 sequence (Q9HD36 whole entry): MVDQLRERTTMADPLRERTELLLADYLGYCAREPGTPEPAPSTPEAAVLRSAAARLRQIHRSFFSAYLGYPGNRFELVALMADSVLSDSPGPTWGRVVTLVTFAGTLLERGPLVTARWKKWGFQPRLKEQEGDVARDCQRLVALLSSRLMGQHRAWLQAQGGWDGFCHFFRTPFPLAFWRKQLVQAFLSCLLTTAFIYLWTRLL

Streptococcus [5] = assay: Group A Streptococcus viability loss, dose response, counter-screen for streptokinase expression inhibitor project, luminescence, BacTiterGlo (AID 1915); format: functional, organism-based;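 note: potency for reduction of bacterial viability or growth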
[6] = tested on: Streptococcus sp. 'group A'; assay: growth inhibition of control SK(-) GAS strain, dose response, counter-screen for streptokinase expression inhibitor project, luminescence, kanamycin, BacTiterGlo, confirmation (AID 1900); format: functional, organism-based
[7] = CRF-BP/CRF-R2 complex antagonists, dose response, cell-based, uHTS hits, 384-well (AID 651639); format: functional, Homo sapiens; details: read-out: IC50_Mean
[8] = molecular target: Transitional endoplasmic reticulum ATPase (Homo sapiens, UniProt P55072, C522A); assay: C522A mutant p97 ATPase inhibitors, dose response, counter-screen for p97 inhibitor project, biochemical, luminescence (AID 1544)
Chain of Transitional endoplasmic reticulum ATPase (Homo sapiens, UniProt P55072, C522A) (P55072 2-806 C522A limits assumed): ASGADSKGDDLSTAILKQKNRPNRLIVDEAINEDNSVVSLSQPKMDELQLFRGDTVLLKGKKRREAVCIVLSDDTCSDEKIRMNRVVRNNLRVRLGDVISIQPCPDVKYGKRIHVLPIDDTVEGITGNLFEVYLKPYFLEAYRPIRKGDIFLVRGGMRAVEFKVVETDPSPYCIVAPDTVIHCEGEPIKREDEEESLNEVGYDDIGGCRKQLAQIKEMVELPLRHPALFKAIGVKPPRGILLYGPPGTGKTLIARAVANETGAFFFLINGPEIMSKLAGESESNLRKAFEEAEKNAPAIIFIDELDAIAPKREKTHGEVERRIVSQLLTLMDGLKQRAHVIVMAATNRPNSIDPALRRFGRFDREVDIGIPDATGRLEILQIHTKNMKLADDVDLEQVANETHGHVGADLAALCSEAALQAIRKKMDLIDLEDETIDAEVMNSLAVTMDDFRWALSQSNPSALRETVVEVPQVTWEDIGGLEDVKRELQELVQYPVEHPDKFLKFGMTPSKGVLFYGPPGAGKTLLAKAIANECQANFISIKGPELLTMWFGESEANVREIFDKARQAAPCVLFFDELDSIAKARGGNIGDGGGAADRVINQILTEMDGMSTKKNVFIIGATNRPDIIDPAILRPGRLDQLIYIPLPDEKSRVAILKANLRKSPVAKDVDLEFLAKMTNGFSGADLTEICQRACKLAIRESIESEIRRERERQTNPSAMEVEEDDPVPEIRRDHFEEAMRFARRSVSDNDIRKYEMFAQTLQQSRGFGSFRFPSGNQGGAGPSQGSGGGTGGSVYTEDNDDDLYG

Aminopeptidase N = molecular target: T2, Aminopeptidase N (Plasmodium falciparum FcB1/Columbia, UniProt O96935); assay: P. falciparum M1AAP inhibitors, biochemical, fluorogenic H-Leu-NHMec substrate, 1536-well (AID 1445); set-up: species or system Plasmodium falciparum 3D7, 3D7
T2 sequence (O96935 whole entry): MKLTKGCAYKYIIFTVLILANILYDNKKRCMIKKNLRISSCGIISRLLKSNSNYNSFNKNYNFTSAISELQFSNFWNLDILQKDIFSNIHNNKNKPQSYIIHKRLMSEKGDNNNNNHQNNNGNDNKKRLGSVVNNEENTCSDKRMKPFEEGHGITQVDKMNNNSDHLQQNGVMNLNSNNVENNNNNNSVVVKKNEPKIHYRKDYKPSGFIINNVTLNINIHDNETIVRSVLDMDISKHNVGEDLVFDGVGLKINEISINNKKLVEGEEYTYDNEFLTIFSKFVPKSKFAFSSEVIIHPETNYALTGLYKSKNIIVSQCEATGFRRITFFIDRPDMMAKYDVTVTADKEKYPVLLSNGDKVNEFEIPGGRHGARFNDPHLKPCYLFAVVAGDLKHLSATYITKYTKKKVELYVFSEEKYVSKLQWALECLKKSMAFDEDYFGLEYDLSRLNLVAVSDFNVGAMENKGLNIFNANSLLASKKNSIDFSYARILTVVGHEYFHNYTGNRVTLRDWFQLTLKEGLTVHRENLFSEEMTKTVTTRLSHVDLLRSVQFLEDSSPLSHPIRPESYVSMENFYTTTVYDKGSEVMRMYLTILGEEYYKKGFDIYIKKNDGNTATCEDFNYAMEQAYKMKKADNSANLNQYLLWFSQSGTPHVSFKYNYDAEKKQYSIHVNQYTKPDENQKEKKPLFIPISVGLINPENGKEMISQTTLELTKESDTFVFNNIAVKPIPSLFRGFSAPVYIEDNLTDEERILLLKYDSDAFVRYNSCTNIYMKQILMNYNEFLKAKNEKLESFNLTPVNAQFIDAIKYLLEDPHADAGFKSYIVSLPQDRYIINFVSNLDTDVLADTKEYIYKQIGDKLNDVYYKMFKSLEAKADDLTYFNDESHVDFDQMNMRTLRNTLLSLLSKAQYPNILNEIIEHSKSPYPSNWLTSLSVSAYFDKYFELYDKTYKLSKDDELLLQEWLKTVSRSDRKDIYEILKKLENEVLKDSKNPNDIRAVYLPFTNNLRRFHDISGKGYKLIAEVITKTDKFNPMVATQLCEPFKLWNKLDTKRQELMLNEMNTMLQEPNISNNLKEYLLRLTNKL

[9] = molecular target: T3, Corticotropin-releasing factor receptor 2/Corticotropin-releasing factor-binding protein (Homo sapiens, UniProt P24387+Q13324); assay: activators of CRF receptor 2 with binding protein – uHTS hits, confirmation (AID 602473); format: functional; details: read-out: EC50_Mean
T3 sequence (Q13324 whole entry): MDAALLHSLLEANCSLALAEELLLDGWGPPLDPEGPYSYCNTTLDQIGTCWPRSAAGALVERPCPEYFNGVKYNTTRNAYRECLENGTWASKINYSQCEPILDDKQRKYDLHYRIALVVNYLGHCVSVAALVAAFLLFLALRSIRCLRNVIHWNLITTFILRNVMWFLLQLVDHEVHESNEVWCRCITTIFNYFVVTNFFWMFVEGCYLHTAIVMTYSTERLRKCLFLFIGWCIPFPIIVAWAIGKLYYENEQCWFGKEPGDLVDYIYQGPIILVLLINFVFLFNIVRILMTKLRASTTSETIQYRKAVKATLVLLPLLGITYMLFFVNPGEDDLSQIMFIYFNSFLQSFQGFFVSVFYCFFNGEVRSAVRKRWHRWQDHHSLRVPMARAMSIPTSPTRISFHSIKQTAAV
T3 sequence (P24387 whole entry): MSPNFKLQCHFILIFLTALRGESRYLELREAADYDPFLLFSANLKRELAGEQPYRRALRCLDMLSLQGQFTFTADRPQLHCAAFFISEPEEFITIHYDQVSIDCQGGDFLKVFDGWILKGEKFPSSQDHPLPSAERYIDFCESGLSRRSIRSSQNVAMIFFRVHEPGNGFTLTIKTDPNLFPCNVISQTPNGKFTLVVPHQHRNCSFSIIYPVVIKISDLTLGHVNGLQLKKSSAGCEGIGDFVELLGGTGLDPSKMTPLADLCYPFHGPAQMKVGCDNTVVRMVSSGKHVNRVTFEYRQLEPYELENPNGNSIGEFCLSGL

[10] = molecular target: Transitional endoplasmic reticulum ATPase (Homo sapiens, UniProt P55072); assay: p97 ATPase inhibitors, dose response, biochemical (AID 1534)
Chain of Transitional endoplasmic reticulum ATPase (Homo sapiens, UniProt P55072) (P55072 whole entry): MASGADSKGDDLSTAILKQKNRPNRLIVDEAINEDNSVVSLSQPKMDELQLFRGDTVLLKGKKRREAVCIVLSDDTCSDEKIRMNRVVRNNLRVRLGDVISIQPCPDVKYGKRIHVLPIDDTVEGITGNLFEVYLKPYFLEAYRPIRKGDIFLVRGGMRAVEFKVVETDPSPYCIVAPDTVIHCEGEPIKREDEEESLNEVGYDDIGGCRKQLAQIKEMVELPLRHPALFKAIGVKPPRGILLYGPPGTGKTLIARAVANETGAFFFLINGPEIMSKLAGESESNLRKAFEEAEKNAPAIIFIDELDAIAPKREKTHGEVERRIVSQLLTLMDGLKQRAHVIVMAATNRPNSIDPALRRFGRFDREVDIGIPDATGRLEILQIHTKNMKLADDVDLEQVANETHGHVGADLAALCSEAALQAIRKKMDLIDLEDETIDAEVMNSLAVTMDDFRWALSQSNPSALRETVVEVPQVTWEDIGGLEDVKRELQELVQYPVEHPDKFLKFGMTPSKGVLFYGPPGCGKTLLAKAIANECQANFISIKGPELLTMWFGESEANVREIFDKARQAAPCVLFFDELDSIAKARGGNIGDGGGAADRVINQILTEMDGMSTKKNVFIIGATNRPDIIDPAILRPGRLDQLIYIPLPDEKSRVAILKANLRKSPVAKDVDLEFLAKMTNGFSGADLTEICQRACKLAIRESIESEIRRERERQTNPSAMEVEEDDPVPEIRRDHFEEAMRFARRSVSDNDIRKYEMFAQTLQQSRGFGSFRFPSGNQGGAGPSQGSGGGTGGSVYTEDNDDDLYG

[11] = molecular target: T4, Long-chain-fatty-acid--AMP ligase FadD28 (Mycobacterium tuberculosis, UniProt P9WQ59); assay: Fluorescence polarization aasay to screen for inhibitors that compete for the binding of FadD28 to a bisubstrate Measured in Biochemical System Using Plate Reader - 2147-01_Inhibitor_Dose_CherryPick_Activity.; format: functional, Mycobacterium tuberculosis H37Rv
T4 sequence (P9WQ59 whole entry): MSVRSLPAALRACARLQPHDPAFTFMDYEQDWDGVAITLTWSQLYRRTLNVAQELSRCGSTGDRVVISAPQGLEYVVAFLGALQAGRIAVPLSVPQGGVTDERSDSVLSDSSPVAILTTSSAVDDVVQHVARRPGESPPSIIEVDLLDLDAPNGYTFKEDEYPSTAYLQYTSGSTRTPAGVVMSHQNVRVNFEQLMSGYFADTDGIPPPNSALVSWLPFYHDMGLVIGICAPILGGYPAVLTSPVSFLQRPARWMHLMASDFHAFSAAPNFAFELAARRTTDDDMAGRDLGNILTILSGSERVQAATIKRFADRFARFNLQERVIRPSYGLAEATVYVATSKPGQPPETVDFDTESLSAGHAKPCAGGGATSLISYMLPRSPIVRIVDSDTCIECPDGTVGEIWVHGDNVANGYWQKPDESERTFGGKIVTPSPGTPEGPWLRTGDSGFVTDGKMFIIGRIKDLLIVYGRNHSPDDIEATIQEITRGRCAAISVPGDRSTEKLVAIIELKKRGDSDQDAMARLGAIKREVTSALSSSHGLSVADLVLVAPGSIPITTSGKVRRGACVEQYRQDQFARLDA

[12] = molecular target: T3, Corticotropin-releasing factor receptor 2/Corticotropin-releasing factor-binding protein; assay: Dose Response confirmation of uHTS hits for small molecule antagonists of the CRF-binding protein and CRF-R2 receptor complex.; format: functional; details: read-out: IC50_Mean

CC(C)N=C(S)NN=C1c2ccccc2-c2ccccc21
EC50 (cells [1]): > 350 µM (not active)
CC50 [2]: > 40 µM (active)
EC50 (cells [3]): > 350 µM (not active)

COc1ccc(SCC(=O)N2c3ccccc3Sc3ccccc32)cc1
EC50 (Streptococcus [4]): > 500 µM (not active)

Cn1c(=O)cc2c3c(c(Nc4ccc(C=O)cc4)ccc31)C(=O)c1ccccc1-2
EC50 (Bcl-2-like protein 10): 8.04 µM (active)

O=C(CSc1nc(O)nc(-c2ccc(Cl)cc2)n1)Nc1cccc(Cl)c1
EC50 (Streptococcus [5]): > 150 µM (not active)
EC50 [6]: 4.35 µM (active)
EC50 (Streptococcus [4]): 26.2 µM (active)

COc1cc(C2Nc3ccc4ccccc4c3C3=C2C(=O)CC(C)(C)C3)c(Br)cc1O (configuration not stated)
EC50 (Bcl-2-like protein 10): 13.1 µM (active)

Cc1[nH]c2ccccc2c1/C=C1/C(=N)N2C(=NC1=O)SN=C2S(=O)(=O)CC(C)C
IC50 [7]: > 20 µM (inactive)
IC50 [8]: > 50 µM (not active)
IC50 (Aminopeptidase N): 29.5 µM (active)
EC50 [9]: > 53 µM (inactive)
IC50 [10]: 12.3 µM (not active)
AC50 [11]: > 100 µM (inactive)
IC50 [12]: 9.51 µM (active)

CCOC(=O)c1c(C)[nH]c(C)c1C(=O)COC(=O)c1ccc(S(=O)(=O)N(CC)CC)cc1
CC50 [2]: > 40 µM (active)
